These results are taken from patent publication US12398120B2, “Substituted hydantoinamides as ADAMTS7 antagonists” (BAYER AKTIENGESELLSCHAFT, priority 2019, dated 2025).

pIC50: −log10 of the molar value.

ADAMTS4, sequence (O75173 213-685): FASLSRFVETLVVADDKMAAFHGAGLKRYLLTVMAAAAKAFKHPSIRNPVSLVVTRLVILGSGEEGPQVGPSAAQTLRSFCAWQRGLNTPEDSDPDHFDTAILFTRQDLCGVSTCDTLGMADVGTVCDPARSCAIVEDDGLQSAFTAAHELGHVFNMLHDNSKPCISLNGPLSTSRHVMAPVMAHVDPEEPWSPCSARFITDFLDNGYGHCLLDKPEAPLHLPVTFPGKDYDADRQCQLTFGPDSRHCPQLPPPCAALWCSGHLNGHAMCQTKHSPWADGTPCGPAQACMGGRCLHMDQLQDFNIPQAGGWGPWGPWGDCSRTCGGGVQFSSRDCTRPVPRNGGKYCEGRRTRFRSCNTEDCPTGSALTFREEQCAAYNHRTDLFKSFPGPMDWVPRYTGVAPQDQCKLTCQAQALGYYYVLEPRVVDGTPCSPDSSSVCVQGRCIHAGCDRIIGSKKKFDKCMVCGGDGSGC

For this assay, the target named is ADAMTS4 (Homo sapiens (Human), UniProt O75173). The experiment in a line: Selectivity assay for ADAMTS-7 modulators: ADAMTS4 (FRET substrate). The settings on record: ADAMTS4 (R&D 4307-AD) 50 nM, substrate Dabcyl-EEVKAKVQPY-Glu(Edans)-NH2 1 μM, 120 min, 32° C. It is filed as biochemical. In a few lines:
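Activity read as rising fluorescence after a FRET substrate is cleaved by human ADAMTS4, with reactions started by substrate addition to wells holding compound or DMSO. Percent inhibition plotted against concentration gave IC50.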
One may read the pIC50 as the IC50 on a negative log10 scale, so that one unit is a factor of ten. For the compound `Cn1cncc1C1(CNC(=O)c2ccc(F)cc2-c2ccc(C(F)(F)F)cc2)NC(=O)NC1=O` (racemic) [Example 284, Rac-5-Fluoro-N-{[4-(1-Methyl-1H-Imidazol-5-Yl)-2,5-Dioxoimidazolidin-4-Yl]Methyl}-4′-(Trifluoromethyl)[Biphenyl]-2-Carboxamide], the pIC50 was 5.07.
Compound `O=C1NC(=O)[C@](CNC(=O)c2ccc(F)cc2-c2ccc(C(F)(F)F)nc2)(C2CC2)N1` [Example 290, N-{[(4R)-4-Cyclopropyl-2,5-Dioxoimidazolidin-4-Yl]Methyl}-4-Fluoro-2-[6-(Trifluoromethyl)Pyridin-3-Yl]Benzamide] had a pIC50 of 4.68.
In turn, `Cc1scnc1C1(CNC(=O)c2ccccc2-c2ccc(Cl)cc2)NC(=O)NC1=O` (racemic) [Example 171, Rac-4′-Chloro-N-{[4-(5-Methyl-1,3-Thiazol-4-Yl)-2,5-Dioxoimidazolidin-4-Yl]Methyl}[Biphenyl]-2-Carboxamide] showed a negative logarithm of the IC50 (pIC50) of 5.16.
Regarding `Cn1ccc(C2(CNC(=O)c3ccc(F)c(F)c3-c3ccc(C(F)(F)F)cc3)NC(=O)NC2=O)n1` (racemic) [Example 307, Rac-5,6-Difluoro-N-{[4-(1-Methyl-1H-Pyrazol-3-Yl)-2,5-Dioxoimidazolidin-4-Yl]Methyl}-4′-(Trifluoromethyl)[Biphenyl]-2-Carboxamide], the pIC50 is 4.64.
Compound `CC(C)C1(CNC(=O)c2cc(F)c(F)cc2-c2ccc(C(F)(F)F)cc2)NC(=O)NC1=O` (single isomer, unassigned; ent-4) [Example 213, Ent-4,5-Difluoro-N-[(4-Isopropyl-2,5-Dioxoimidazolidin-4-Yl)Methyl]-4′-(Trifluoromethyl)[Biphenyl]-2-Carboxamide] had a negative logarithm of the IC50 (pIC50) of 4.52.
Compound `Cc1c(C2(CNC(=O)c3ccccc3-c3ccc(C(F)(F)F)cc3)NC(=O)NC2=O)cnn1C` (stereo not drawn) [Example 31, Ent-N-{[4-(1,5-Dimethyl-1H-Pyrazol-4-Yl)-2,5-Dioxoimidazolidin-4-Yl]Methyl}-4′-(Trifluoromethyl)[Biphenyl]-2-Carboxamide] had a pIC50 of 5.19.
For `Cc1ccc(C(=O)NC[C@@]2(C3CC3)NC(=O)NC2=O)c(-c2ccc(C(F)(F)F)cc2)c1` [Example 218, N-{[(4R)-4-Cyclopropyl-2,5-Dioxoimidazolidin-4-Yl]Methyl}-5-Methyl-4′-(Trifluoromethyl)[Biphenyl]-2-Carboxamide] the value was 5.40; for `O=C1NC(=O)C(CNC(=O)c2ccccc2-c2ccc(C(F)(F)F)cc2)(C2CCOCC2)N1` (racemic) [Example 29, Rac-N-{[2,5-Dioxo-4-(Tetrahydro-2H-Pyran-4-Yl)Imidazolidin-4-Yl]Methyl}-4′-(Trifluoromethyl)[Biphenyl]-2-Carboxamide], under 4.30.
For `Cn1ccnc1C1(CNC(=O)c2cc(Cl)ccc2-c2ccc(C(F)(F)F)cc2)NC(=O)NC1=O` (single isomer, unassigned; ent-4) [Example 156, Ent-4-Chloro-N-{[4-(1-Methyl-1H-Imidazol-2-Yl)-2,5-Dioxoimidazolidin-4-Yl]Methyl}-4′-(Trifluoromethyl)[Biphenyl]-2-Carboxamide] the value was 4.60; for `Cn1nccc1C1(CNC(=O)c2ccccc2-c2ccc(Cl)cc2F)NC(=O)NC1=O` (single isomer, unassigned; ent-4) [Example 313, Ent-4′-Chloro-2′-Fluoro-N-{[4-(1-Methyl-1H-Pyrazol-5-Yl)-2,5-Dioxoimidazolidin-4-Yl]Methyl}[Biphenyl]-2-Carboxamide], 4.64.
The same measure for `Cn1ccnc1C1(CNC(=O)c2ccccc2-c2ccc(C(F)(F)F)nc2)NC(=O)NC1=O` (stereo not drawn) [Example 158, Ent-N-{[4-(1-Methyl-1H-Imidazol-2-Yl)-2,5-Dioxoimidazolidin-4-Yl]Methyl}-2-[6-(Trifluoromethyl)Pyridin-3-Yl]Benzamide]: 5.52; for `O=C1NC(=O)[C@](CNC(=O)c2ccc(Cl)cc2-c2ccc(C(F)(F)F)nc2)(C2CC2)N1` [Example 75, 4-Chloro-N-{[(4R)-4-Cyclopropyl-2,5-Dioxoimidazolidin-4-Yl]Methyl}-2-[6-(Trifluoromethyl)Pyridin-3-Yl]Benzamide]: 5.00; for `Cc1ccc(-c2cccc(F)c2C(=O)NC[C@@]2(C3CC3)NC(=O)NC2=O)cc1` [Example 229, N-{[(4R)-4-Cyclopropyl-2,5-Dioxoimidazolidin-4-Yl]Methyl}-3-Fluoro-4′-Methyl[1,1′-Biphenyl]-2-Carboxamide]: 4.70.
`O=C1NC(=O)C(CNC(=O)c2ccccc2-c2ccc(C(F)(F)F)cc2)(C2(F)CC2)N1` (racemic) [Example 254, Rac-N-{[4-(1-Fluorocyclopropyl)-2,5-Dioxoimidazolidin-4-Yl]Methyl}-4′-(Trifluoromethyl)[Biphenyl]-2-Carboxamide] showed a pIC50 of 4.59.
For `Cc1nc(C)c(C2(CNC(=O)c3ccccc3-c3ccc(C(F)(F)F)cc3)NC(=O)NC2=O)s1` (racemic) [Example 15, Rac-N-{[4-(2,4-Dimethyl-1,3-Thiazol-5-Yl)-2,5-Dioxoimidazolidin-4-Yl]Methyl}-4′-(Trifluoromethyl)[Biphenyl]-2-Carboxamide] the value was 5.11; for `Cc1ccc(-c2ccccc2C(=O)NC[C@@]2(C3CC3)NC(=O)NC2=O)cn1` [Example 228, N-{[(4R)-4-Cyclopropyl-2,5-Dioxoimidazolidin-4-Yl]Methyl}-2-(6-Methylpyridin-3-Yl)Benzamide], 4.70; for `Cc1ncsc1C1(CNC(=O)c2ccc(F)cc2-c2ccc(C(F)(F)F)cc2)NC(=O)NC1=O` (single isomer, unassigned; ent-5) [Example 10, Ent-5-Fluoro-N-{[4-(4-Methyl-1,3-Thiazol-5-Yl)-2,5-Dioxoimidazolidin-4-Yl]Methyl}-4′-(Trifluoromethyl)[Biphenyl]-2-Carboxamide], 5.05.
For `O=C1NC(=O)C(CNC(=O)c2ccccc2-c2ccc(C(F)(F)F)cc2)(c2ncsc2C2CC2)N1` (racemic) [Example 270, Rac-N-{[4-(5-Cyclopropyl-1,3-Thiazol-4-Yl)-2,5-Dioxoimidazolidin-4-Yl]Methyl}-4′-(Trifluoromethyl)[Biphenyl]-2-Carboxamide] the value was 5.16.
`CCCC1(CNC(=O)c2ccccc2-c2ccc(C(F)(F)F)cc2)NC(=O)NC1=O` (racemic) [Example 24, Rac-N-[(2,5-Dioxo-4-Propylimidazolidin-4-Yl)Methyl]-4′-(Trifluoromethyl)[Biphenyl]-2-Carboxamide] had a pIC50 of under 4.30.
`O=C1NC(=O)C(CNC(=O)c2ccc(F)cc2-c2ccc(C(F)(F)F)cc2)(C2(F)CC2)N1` (single isomer, unassigned; ent-5) [Example 253, Ent-5-Fluoro-N-{[4-(1-Fluorocyclopropyl)-2,5-Dioxoimidazolidin-4-Yl]Methyl}-4′-(Trifluoromethyl)[Biphenyl]-2-Carboxamide] had a pIC50 of 4.96.
Compound `CC(C)CCC1(CNC(=O)c2ccccc2-c2ccc(C(F)(F)F)cc2)NC(=O)NC1=O` (racemic) [Example 58, Rac-N-{[4-(3-Methylbutyl)-2,5-Dioxoimidazolidin-4-Yl]Methyl}-4′-(Trifluoromethyl)[Biphenyl]-2-Carboxamide] showed a pIC50 of under 4.30.
